From patent publication US20130109734A1 (Metabolex, Inc., priority 2010, published 2013)

Target: T1, human GPR120 (Homo sapiens, UniProt Q5NUL3)
T1 construct: host or cells: HEK293 cells co-expressing Gqi5
T1 sequence (Q5NUL3 1-361): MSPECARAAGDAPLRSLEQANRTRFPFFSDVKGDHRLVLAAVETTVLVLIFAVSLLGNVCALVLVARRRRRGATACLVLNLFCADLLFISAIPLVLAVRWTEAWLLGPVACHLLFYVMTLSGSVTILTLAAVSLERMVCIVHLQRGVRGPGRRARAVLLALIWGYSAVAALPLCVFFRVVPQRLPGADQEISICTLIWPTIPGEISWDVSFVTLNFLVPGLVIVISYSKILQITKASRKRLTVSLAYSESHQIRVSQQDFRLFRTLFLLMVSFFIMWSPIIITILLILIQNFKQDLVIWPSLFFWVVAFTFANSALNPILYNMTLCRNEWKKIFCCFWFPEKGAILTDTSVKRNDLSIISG
Test: Intracellular Ca2+ assay in human GPR120 stable cell line (HEK293 co-expressing Gqi5), Flexstation
Type: cell-based
Settings: for % Activity (GW9508 Reference Compound): % activity at 5 μM compared to the maximal activity of GW9508 at 6.7 μM (=100%); for EC50: human GPR120 stably expressing cells, Ca2+ fluorescence (Max-Min), eight concentrations 0.00001 to 20 μM
Procedure: Human GPR120 stable cell line was purchased from Multispan Inc (26219 Eden Landing Road, Hayward, Calif. 94545). This GPR120 cell line was generated in HEK293 cells co-expressing Gqi5. In this cell line, the Flag epitope tag (DYKDDDDK) was fused to the amino terminus of human GPR120 protein.
The concentration of intracellular Ca^2+ was measured as described below. Human GPR120 cells were plated in 96 well plates (Poly-D-Lysine coated black/clear Plate, Greiner Bio-One) at 70,000 cells per well and cultured overnight in conditions of 37° C. and 5% CO2. A Ca^2+assay dye stock solution was prepared by adding 10 mL of assay buffer (HBSS/20 mM HEPES, pH 7.4) to FLIPR Calcium 4 Assay Bulk Kit (Molecular Devices). The 10 mL of Ca^2+ assay dye solution was prepared by further diluting 0.5 mL of Ca^2+ assay dye stock solution with 10 mL of assay buffer. The medium of the cells was removed and immediately 100 μL of the Ca^2+ assay dye solution was dispensed into each well followed by incubation at 37° C. and 5% CO2 for 50 minutes to incorporate the Ca^2+ dye into the cells. The cell plate was then placed in the Flexstation (Molecular Devices) for 20 minutes at 37° C. Compounds were dissolved in 100% DMSO and diluted to desired concentrations with assay buffer and placed in the Flexstation simultaneously with the cell plate for 20 minute incubation at 37° C. prior to reading. Fluorescence intensity was measured immediately following compound addition (25 μL/well) on the Flexstation at an excitation wavelength of 485 nm and an emission wavelength of 525 with 515 nm auto cutoff. The resulting increase in fluorescence intensities corresponds to increases in intracellular Ca^2+ levels.
Compounds were dissolved in 100% DMSO to a concentration of 20 mM to provide stock solutions. To determine activity against human GPR120, compounds were added with human GPR120 stably expressing cells (described above), at eight desired concentrations ranging from 0.00001 to 20 μM, in 96 well plates and fluorescence intensities were measured for 90 seconds with 2-second intervals. An EC50 value (concentration of the GPR120 agonist where 50% of the agonist's maximal activity is observed) was calculated using the changes (Max−Min) of fluorescence intensity.
To determine percent activity for a tested compound, the fluorescence intensity value obtained at a particular concentration were compared to the maximal fluorescence intensity value obtained for reference compound GW9508 (4-[[(3-phenoxyphenyl)methyl]amino]benzene propanoic acid; British Journal of Pharmacology 2006 148, 619-628) or the compound of Example 25. When GW9508 was used as the reference compound, the maximal activity of GW9508 at 6.7 μM was designated as 100% activity. When the compound of Example 25 was used as the reference compound, the maximal activity of the compound of Example 25 at 2.5 μM was designated as 100% activity. Typically, the GW9508 activity reached a maximum at a concentration of approximately 6.7 μM and typically the compound of Example 25 reached a maximum activity at approximately 2.5 μM.

[1] = human GPR120 cells, Ca2+ fluorescence

CC(Cc1cc(F)c(OCc2cccc3c2OC(C)(C)C3)c(F)c1)C(=O)O (centres unmarked) [Example 23, 3-(4-((2,2-dimethyl-2,3-dihydrobenzofuran-7-yl)methoxy)-3,5-difluorophenyl)-2-methylpropanoic acid]
% Activity (GW9508 Reference Compound) [1]: 112.7429%

CC1(C)Cc2cccc(COc3c(F)cc(C4CC4C(=O)O)cc3F)c2O1 (centres unmarked) [Example 24, 2-(4-((2,2-dimethyl-2,3-dihydrobenzofuran-7-yl)methoxy)-3,5-difluorophenyl)cyclopropanecarboxylic acid]
% Activity (GW9508 Reference Compound) [1]: 100.3%

CC1(C)Cc2cccc(COc3c(F)cc(CCC(=O)O)cc3F)c2O1 [Example 25, 3-(4-((2,2-dimethyl-2,3-dihydrobenzofuran-7-yl)methoxy)-3,5-difluorophenyl)propanoic acid]
% Activity (GW9508 Reference Compound) [1]: 101.8% | concentration at which activity reached a maximum (human GPR120 cells, Ca2+ fluorescence, reference compounds, typical value): approximately 2.5 μM

CC(Cc1ccc(OCc2cc(Cl)cc3c2OC(C)(C)C3)cc1Cl)C(=O)O (centres unmarked) [Example 26, 3-(2-chloro-4-((5-chloro-2,2-dimethyl-2,3-dihydrobenzofuran-7-yl)methoxy)phenyl)-2-methylpropanoic acid]
% Activity (GW9508 Reference Compound) [1]: 163.7%

CC1(C)Cc2c(F)ccc(COc3c(F)cc(C4CC4C(=O)O)cc3F)c2O1 (centres unmarked) [Example 27, 2-(3,5-difluoro-4-((4-fluoro-2,2-dimethyl-2,3-dihydrobenzofuran-7-yl)methoxy)phenyl)cyclopropanecarboxylic acid]
% Activity (GW9508 Reference Compound) [1]: 143.8489%

CC(Cc1cc(F)c(OCc2ccc(F)c3c2OC(C)(C)C3)c(F)c1)C(=O)O (centres unmarked) [Example 28, 3-(3,5-difluoro-4-((4-fluoro-2,2-dimethyl-2,3-dihydrobenzofuran-7-yl)methoxy)phenyl)-2-methylpropanoic acid]
% Activity (GW9508 Reference Compound) [1]: 109.6%

CC(Cc1ccc(OCc2ccc(F)c3c2OC(C)(C)C3)c(F)c1)C(=O)O (centres unmarked) [Example 29, 3-(3-fluoro-4-((4-fluoro-2,2-dimethyl-2,3-dihydrobenzofuran-7-yl)methoxy)phenyl)-2-methylpropanoic acid]
% Activity (GW9508 Reference Compound) [1]: 133.5%

CC(Cc1ccc(OCc2ccc(F)c3c2OC(C)(C)C3)cc1)C(=O)O (centres unmarked) [Example 30, 3-(4-((4-fluoro-2,2-dimethyl-2,3-dihydrobenzofuran-7-yl)methoxy)phenyl)-2-methylpropanoic acid]
% Activity (GW9508 Reference Compound) [1]: 176.6%

CC1(C)Cc2c(C(F)(F)F)ccc(COc3c(F)cc(C4CC4C(=O)O)cc3F)c2O1 (centres unmarked) [Example 31, 2-(4-((2,2-dimethyl-4-(trifluoromethyl)-2,3-dihydrobenzofuran-7-yl)methoxy)-3,5-difluorophenyl)cyclopropanecarboxylic acid]
% Activity (GW9508 Reference Compound) [1]: 149.5%

CC(Cc1cc(F)c(OCc2ccc(C(F)(F)F)c3c2OC(C)(C)C3)c(F)c1)C(=O)O (centres unmarked) [Example 32, 3-(4-((2,2-dimethyl-4-(trifluoromethyl)-2,3-dihydrobenzofuran-7-yl)methoxy)-3,5-difluorophenyl)-2-methylpropanoic acid]
% Activity (GW9508 Reference Compound) [1]: 143.1%

CC(Cc1ccc(OCc2ccc(C(F)(F)F)c3c2OC(C)(C)C3)c(F)c1)C(=O)O (centres unmarked) [Example 33, 3-(4-((2,2-dimethyl-4-(trifluoromethyl)-2,3-dihydrobenzofuran-7-yl)methoxy)-3-fluorophenyl)-2-methylpropanoic acid]
% Activity (GW9508 Reference Compound) [1]: 142.9517%

CC(Cc1ccc(OCc2ccc(C(F)(F)F)c3c2OC(C)(C)C3)cc1)C(=O)O (centres unmarked) [Example 34, 3-(4-((2,2-dimethyl-4-(trifluoromethyl)-2,3-dihydrobenzofuran-7-yl)methoxy)phenyl)-2-methylpropanoic acid]
% Activity (GW9508 Reference Compound) [1]: 117.9%

CC1(C)Cc2cc(Cl)cc(COc3ccc4c(c3)CCC4CC(=O)O)c2O1 (centres unmarked) [Example 36, 2-(5-((5-chloro-2,2-dimethyl-2,3-dihydrobenzofuran-7-yl)methoxy)-2,3-dihydro-1H-inden-1-yl)acetic acid]
% Activity (GW9508 Reference Compound) [1]: 122.9%

CC1(C)Cc2cc(F)cc(COc3ccc4c(c3)CCC4CC(=O)O)c2O1 (centres unmarked) [Example 37, 2-(5-((5-fluoro-2,2-dimethyl-2,3-dihydrobenzofuran-7-yl)methoxy)-2,3-dihydro-1H-inden-1-yl)acetic acid]
% Activity (GW9508 Reference Compound) [1]: 124.7%

CC(Cc1cc(F)c(OCc2cc(Cl)cc3c2OC(C)(C)C3)c(F)c1)C(=O)O (centres unmarked) [Example 38, 3-(4-((5-chloro-2,2-dimethyl-2,3-dihydrobenzofuran-7-yl)methoxy)-3,5-difluorophenyl)-2-methylpropanoic acid]
% Activity (GW9508 Reference Compound) [1]: 83.43%

CC(Cc1cc(F)c(OCc2cccc3c2OC(C)C3C)c(F)c1)C(=O)O (centres unmarked) [Example 40, 3-(4-((2,3-dimethyl-2,3-dihydrobenzofuran-7-yl)methoxy)-3,5-difluorophenyl)-2-methylpropanoic acid]
% Activity (GW9508 Reference Compound) [1]: 95.33% | EC50: > 10 µM

CC1(C)Cc2cc(Cl)cc(COc3c(F)cc(C4CC4CC(=O)O)cc3F)c2O1 (centres unmarked) [Example 41, 2-(2-(4-((5-chloro-2,2-dimethyl-2,3-dihydrobenzofuran-7-yl)methoxy)-3,5-difluorophenyl)cyclopropyl)acetic acid]
% Activity (GW9508 Reference Compound) [1]: 116.46% | EC50: > 10 µM

CC(Cc1cc(F)c(OCc2c(F)c(F)cc3c2OC(C)(C)C3)c(F)c1)C(=O)O (centres unmarked) [Example 42, 3-(4-((5,6-difluoro-2,2-dimethyl-2,3-dihydrobenzofuran-7-yl)methoxy)-3,5-difluorophenyl)-2-methylpropanoic acid]
% Activity (GW9508 Reference Compound) [1]: 140.94%

CC(Cc1ccc(COc2cccc3c2OC(C)(C)C3)c(F)c1)C(=O)O (centres unmarked) [Example 44, 3-(4-(((2,2-dimethyl-2,3-dihydrobenzofuran-7-yl)oxy)methyl)-3-fluorophenyl)-2-methylpropanoic acid]
% Activity (GW9508 Reference Compound) [1]: 157.14%

CC(Cc1ccc(OCc2cc(F)cc3c2OCOC3)cc1)C(=O)O (centres unmarked) [Example 45, 3-(4-((6-fluoro-4H-benzo[d][1,3]dioxin-8-yl)methoxy)phenyl)-2-methylpropanoic acid]
% Activity (GW9508 Reference Compound) [1]: 79.58%

Cc1cc(OCc2cc(F)cc3c2OC(C)(C)C3)ccc1CCC(=O)O [Example 46, 3-(4-((5-fluoro-2,2-dimethyl-2,3-dihydrobenzofuran-7-yl)methoxy)-2-methylphenyl)propanoic acid]
% Activity (GW9508 Reference Compound) [1]: 113.55%

CC1(C)Cc2cc(F)cc(COc3ccc(CCC(=O)O)c(Cl)c3)c2O1 [Example 47, 3-(2-chloro-4-((5-fluoro-2,2-dimethyl-2,3-dihydrobenzofuran-7-yl)methoxy)phenyl)propanoic acid]
% Activity (GW9508 Reference Compound) [1]: 111.18%

COc1cc(OCc2cc(F)cc3c2OC(C)(C)C3)ccc1CCC(=O)O [Example 50, 3-(4-((5-fluoro-2,2-dimethyl-2,3-dihydrobenzofuran-7-yl)methoxy)-2-methoxyphenyl)propanoic acid]
% Activity (GW9508 Reference Compound) [1]: 129.78%
